pEC50: −log10 of the molar value.

The experiment addresses Kv7.2/7.3 (Homo sapiens, UniProt O43525+O43526). The experiment can be described thus: Kv7.2/7.3 Thallium Flux Assay. The note with it: read-out: Kv7.2/7.3 Activity: EC50 of Kv7.2/Kv7.3 activation. Also noted: host or cells: HEK cells, tetracycline-inducible expression. It is filed as cell-based. The source says:
The Thallium Flux Assay is used as a surrogate indicator of potassium channel activity.
The experimental protocol was adapted from the FluxOR™ II Green Potassium Ion Channel Assay User Guide (Pub. No. MAN0016084, Invitrogen). Conditions were optimized for the Kv7.2/7.3 cell line.
The hKV7.2/7.3 cell line was obtained from Chantest (Cleveland, Ohio 44128) cat. #CT6147.
Kv7.2/7.3 cells were maintained in a media containing DMEM/F12; 50/50 (GIBCO cat. #11330), 10% Fetal Bovine Serum (FBS) (GIBCO cat. #26140), 100 units/mL Penicillin-Streptomycin (GIBCO cat. #15140), 0.005 mg/ml Blasticidin (SIGMA 15205), 0.5 mg/mL Geneticin (GIBCO cat. #10131), and 0.1 mg/mL Zeocin (GIBCO cat. #R25001). One day prior to experimentation, cells were plated in 96 well clear bottom plates (Corning cat. #353219) in a media without Blasticidin, Geneticin, or Zeocin. Channel expression was induced by adding tetracycline (Bioline cat. #BIO87030) at a final concentration of 10 ng/mL.
The test compound is diluted in a mixture of 0.1% DMSO/extracellular solution with an eight-point concentration range from 0.014 μM to 30 μM. Serial dilutions were made on a Biomek NXP (BECKMAN COULTER).
Measurement and Data Analysis:
A plate reader (Enspire, Perkin Elmer) is used to characterize the ion-channel modulating properties of novel compounds using an excitation wavelength of 475 nm and an emission wavelength of 530 nm. After a 15 sec baseline measurement, the stimulus buffer containing thallium and potassium is injected. A final endpoint measure is taken after 90 sec. Responses are normalized to positive control (retigabine, 30 µM max). Mean normalized responses at each concentration tested are fit to the standard Hill equation to generate an EC50 and maximal response.
As to `CC1(n2c(NC(=O)CC3CC(F)(F)C3(F)F)nc3ccc(F)c(C#N)c32)CCC1` (single isomer, unassigned) [Example 537, N-(7-cyano-6-fluoro-1-(1-methylcyclobutyl)-1H-benzo[d]imidazol-2-yl)-2-(2,2,3,3-tetrafluorocyclobutyl)acetamide], the pEC50 was over 6.00.

Turning to `CC1(n2c(NC(=O)CC3CC(F)(F)C3(F)F)nc3cc(F)c(Cl)cc32)CCC1` (single isomer, unassigned) [Example 539, N-(6-chloro-5-fluoro-1-(1-methylcyclobutyl)-1H-benzo[d]imidazol-2-yl)-2-(2,2,3,3-tetrafluorocyclobutyl)acetamide], the pEC50 was over 6.00.

Turning to `CC(C(=O)Nc1nc2cc(F)c(F)cc2n1C1(C)CCC1)C1(C(F)(F)F)CC1` (single isomer, unassigned) [Example 540, N-(5,6-difluoro-1-(1-methylcyclobutyl)-1H-benzo[d]imidazol-2-yl)-2-(1-(trifluoromethyl)cyclopropyl)propanamide], the pEC50 is over 6.00.

For `CC1(n2c(NC(=O)CC3CC(F)(F)C3(F)F)nc3c(F)cc(C#N)c(F)c32)CCC1` (single isomer, unassigned) [Example 542, N-(6-cyano-4,7-difluoro-1-(1-methylcyclobutyl)-1H-benzo[d]imidazol-2-yl)-2-(2,2,3,3-tetrafluorocyclobutyl)acetamide], the pEC50 was over 6.00.

Regarding `CC(C(=O)Nc1nc2c(F)cc(C#N)c(F)c2n1C1(C)CCC1)C1(C(F)(F)F)CC1` (single isomer, unassigned) [Example 543, N-(6-cyano-4,7-difluoro-1-(1-methylcyclobutyl)-1H-benzo[d]imidazol-2-yl)-2-(1-(trifluoromethyl)cyclopropyl)propanamide], the pEC50 was over 6.00.

Turning to `CC(C(=O)Nc1nc2c(F)cc(C#N)c(F)c2n1C1(C)CCC1)C1(C(F)(F)F)CC1` (single isomer, unassigned) [Example 544, N-(6-cyano-4,7-difluoro-1-(1-methylcyclobutyl)-1H-benzo[d]imidazol-2-yl)-2-(1-(trifluoromethyl)cyclopropyl)propanamide], the pEC50 was over 6.00.

Take `CC1(n2c(NC(=O)CC3CC(F)(F)C3(F)F)nc3cc(F)cc(C#N)c32)CCC1` (single isomer, unassigned) [Example 545, N-(7-cyano-5-fluoro-1-(1-methylcyclobutyl)-1H-benzo[d]imidazol-2-yl)-2-(2,2,3,3-tetrafluorocyclobutyl)acetamide]: the pEC50 was over 6.00.

As to `CC1(n2c(NC(=O)CC3CC(F)(F)C3(F)F)nc3cc(F)cc(C#N)c32)CCC1` (single isomer, unassigned) [Example 546, N-(7-cyano-5-fluoro-1-(1-methylcyclobutyl)-1H-benzo[d]imidazol-2-yl)-2-(2,2,3,3-tetrafluorocyclobutyl)acetamide], the pEC50 was over 6.00.

As for `CC1(n2c(NC(=O)CC3CC(F)(F)C3(F)F)nc3c(F)ccc(C#N)c32)CCC1` (single isomer, unassigned) [Example 548, N-(7-cyano-4-fluoro-1-(1-methylcyclobutyl)-1H-benzo[d]imidazol-2-yl)-2-(2,2,3,3-tetrafluorocyclobutyl)acetamide], the pEC50 was over 6.00.

In the case of `CC1(n2c(NC(=O)CC3CC(F)(F)C3(F)F)nc3ccc(F)c(Br)c32)CCC1` (single isomer, unassigned) [Example 549, N-(7-bromo-6-fluoro-1-(1-methylcyclobutyl)-1H-benzo[d]imidazol-2-yl)-2-(2,2,3,3-tetrafluorocyclobutyl)acetamide], the pEC50 was over 6.00.

In the case of `N#Cc1ccc2nc(NC(=O)CC3CC(F)(F)C3(F)F)n(-c3ccc(F)cc3)c2c1` (single isomer, unassigned) [Example 551, N-(6-cyano-1-(4-fluorophenyl)-1H-benzo[d]imidazol-2-yl)-2-(2,2,3,3-tetrafluorocyclobutyl)acetamide], the pEC50 was over 6.00.

For `COc1cc(C#N)cc2c1nc(NC(=O)CC1CC(F)(F)C1(F)F)n2C1(C)CCC1` (single isomer, unassigned) [Example 553, N-(6-cyano-4-methoxy-1-(1-methylcyclobutyl)-1H-benzo[d]imidazol-2-yl)-2-(2,2,3,3-tetrafluorocyclobutyl)acetamide], the pEC50 is over 6.00.

`CC(C(=O)Nc1nc2ccc(Cl)c(F)c2n1C1(C)CCC1)C1(C(F)(F)F)CC1` (single isomer, unassigned) [Example 556, N-(6-chloro-7-fluoro-1-(1-methylcyclobutyl)-1H-benzo[d]imidazol-2-yl)-2-(1-(trifluoromethyl)cyclopropyl)propanamide]: the pEC50 is over 6.00.

Take `CC(C)(C)n1c(NC(=O)CC2CC(F)(F)C2(F)F)nc2cc(F)c(F)cc21` (single isomer, unassigned) [Example 557, N-(1-(tert-butyl)-5,6-difluoro-1H-benzo[d]imidazol-2-yl)-2-(2,2,3,3-tetrafluorocyclobutyl)acetamide]: the pEC50 is over 6.00.

Take `CC(C)(C)n1c(NC(=O)CC2CC(F)(F)C2(F)F)nc2cc(F)c(F)cc21` (single isomer, unassigned) [Example 558, N-(1-(tert-butyl)-5,6-difluoro-1H-benzo[d]imidazol-2-yl)-2-(2,2,3,3-tetrafluorocyclobutyl)acetamide]: the pEC50 was 5.52 to 6.00.

For `CC1(n2c(NC(=O)CC3CC(F)(F)C3(F)F)nc3cc(F)c(F)c(F)c32)CCC1` (single isomer, unassigned) [Example 559, 2-(2,2,3,3-tetrafluorocyclobutyl)-N-(5,6,7-trifluoro-1-(1-methylcyclobutyl)-1H-benzo[d]imidazol-2-yl)acetamide], the pEC50 is over 6.00.

In the case of `CC(C)(C)n1c(NC(=O)CC2CC(F)(F)C2(F)F)nc2c(F)cc(F)cc21` (single isomer, unassigned) [Example 560, N-(1-(tert-butyl)-4,6-difluoro-1H-benzo[d]imidazol-2-yl)-2-(2,2,3,3-tetrafluorocyclobutyl)acetamide], the pEC50 was over 6.00.

`CC(C(=O)Nc1nc2c(F)cc(C#N)cc2n1C1(C)CCC1)C(C)(C)C(F)(F)F` (single isomer, unassigned) [Example 562, N-(6-cyano-4-fluoro-1-(1-methylcyclobutyl)-1H-benzo[d]imidazol-2-yl)-4,4,4-trifluoro-2,3,3-trimethylbutanamide]: the pEC50 is over 6.00.

Turning to `CC1(n2c(NC(=O)CC(C)(C)C(F)(F)F)nc3c(F)cc(C#N)cc32)CCC1` [Example 486, N-(6-cyano-4-fluoro-1-(1-methylcyclobutyl)-1H-benzo[d]imidazol-2-yl)-4,4,4-trifluoro-3,3-dimethylbutanamide], the pEC50 is over 6.00.

Take `CC(C)(C)CC(=O)Nc1nc2ccc(C3(O)CCC3)c(OC(F)(F)F)c2n1C1CCC1` [Example 487, N-(1-cyclobutyl-6-(1-hydroxycyclobutyl)-7-(trifluoromethoxy)-1H-benzo[d]imidazol-2-yl)-3,3-dimethylbutanamide]: the pEC50 was over 6.00.

For the compound `CC(C)(C)CC(=O)Nc1nc2ccc(C3(O)CCC3)c(C(F)(F)F)c2n1C1CCC1` [Example 490, N-(1-cyclobutyl-6-(1-hydroxycyclobutyl)-7-(trifluoromethyl)-1H-benzo[d]imidazol-2-yl)-3,3-dimethylbutanamide], the pEC50 was over 6.00.

As to `CC(C)(O)c1ccc2nc(NC(=O)CC3CC(F)(F)C3(F)F)n(C3(C)CCC3)c2c1` (centres unmarked) [Example 491, N-(6-(2-hydroxypropan-2-yl)-1-(1-methylcyclobutyl)-1H-benzo[d]imidazol-2-yl)-2-(2,2,3,3-tetrafluorocyclobutyl)acetamide], the pEC50 is over 6.00.

Take `CC(C)(C)CC(=O)Nc1nc2c(F)cc(C#N)cc2n1C1(C)CCC1` [Example 495, N-(6-cyano-4-fluoro-1-(1-methylcyclobutyl)-1H-benzo[d]imidazol-2-yl)-3,3-dimethylbutanamide]: the pEC50 is over 6.00.

Turning to `CC(C)(C)CC(=O)Nc1nc2ccc(C#N)c(OC(F)(F)F)c2n1C1CCC1` [Example 498, N-(6-cyano-1-cyclobutyl-7-(trifluoromethoxy)-1H-benzo[d]imidazol-2-yl)-3,3-dimethylbutanamide], the pEC50 was over 6.00.

`CC(C)(C)CC(=O)Nc1nc2ccc(C(C)(C)O)c(OC(F)(F)F)c2n1C1CCC1` [Example 501, N-(1-cyclobutyl-6-(2-hydroxypropan-2-yl)-7-(trifluoromethoxy)-1H-benzo[d]imidazol-2-yl)-3,3-dimethylbutanamide]: the pEC50 is 5.52 to 6.00.

`CC(C)(O)c1cc(F)c2nc(NC(=O)C3(CC(F)F)CC3)n(C3CCC3)c2c1` [Example 502, N-(1-cyclobutyl-4-fluoro-6-(2-hydroxypropan-2-yl)-1H-benzo[d]imidazol-2-yl)-1-(2,2-difluoroethyl)cyclopropane-1-carboxamide]: the pEC50 is 5.00 to 5.52.

For the origin of these results see patent publication US10851067B2, “Kv7 channel activators compositions and methods of use” (Knopp Biosciences LLC, priority 2018, dated 2020).
